This note sets out measurements from patent US12528801B2 (Givaudan SA, priority 2019, dated 2026).

In the experiment the target is T1, hTRPM8 (Homo sapiens, UniProt Q7Z2W7).
T1 construct: expressed in transfected cells
T1 sequence (Q7Z2W7 whole entry): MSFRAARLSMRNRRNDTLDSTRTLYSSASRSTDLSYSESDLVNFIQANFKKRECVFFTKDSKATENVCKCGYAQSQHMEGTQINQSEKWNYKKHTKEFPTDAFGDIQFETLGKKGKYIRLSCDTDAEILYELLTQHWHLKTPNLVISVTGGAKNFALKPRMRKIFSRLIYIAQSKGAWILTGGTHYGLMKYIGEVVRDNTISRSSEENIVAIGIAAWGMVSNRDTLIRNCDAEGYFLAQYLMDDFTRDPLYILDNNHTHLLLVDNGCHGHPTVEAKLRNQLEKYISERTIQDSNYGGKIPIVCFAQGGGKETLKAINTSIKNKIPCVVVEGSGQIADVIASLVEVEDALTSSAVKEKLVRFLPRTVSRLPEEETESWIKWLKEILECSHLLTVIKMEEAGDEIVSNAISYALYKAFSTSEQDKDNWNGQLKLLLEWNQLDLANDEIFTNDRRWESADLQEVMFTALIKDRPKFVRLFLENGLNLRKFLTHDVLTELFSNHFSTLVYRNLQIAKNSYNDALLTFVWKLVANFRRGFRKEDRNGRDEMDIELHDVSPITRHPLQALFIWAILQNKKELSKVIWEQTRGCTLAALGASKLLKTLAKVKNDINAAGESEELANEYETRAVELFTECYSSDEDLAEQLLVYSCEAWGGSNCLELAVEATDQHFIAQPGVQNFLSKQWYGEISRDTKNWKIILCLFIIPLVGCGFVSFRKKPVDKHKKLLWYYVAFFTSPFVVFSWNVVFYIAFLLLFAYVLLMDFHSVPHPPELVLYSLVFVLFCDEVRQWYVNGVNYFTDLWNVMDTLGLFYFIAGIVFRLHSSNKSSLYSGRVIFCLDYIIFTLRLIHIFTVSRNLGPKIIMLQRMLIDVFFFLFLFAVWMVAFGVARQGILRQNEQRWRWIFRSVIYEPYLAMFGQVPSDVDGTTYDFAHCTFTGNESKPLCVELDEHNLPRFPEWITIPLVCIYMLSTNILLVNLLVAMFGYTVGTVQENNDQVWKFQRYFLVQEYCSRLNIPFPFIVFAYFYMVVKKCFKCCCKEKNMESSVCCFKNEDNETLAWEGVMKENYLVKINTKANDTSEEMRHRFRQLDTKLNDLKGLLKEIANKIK
As to the kind of experiment: Assay on TRPM8 modulators: calcium imaging (Fluo-4, Flexstation) in HEK293 cell line stably expressing hTRPM8. The format is cell-based. To be noted: HEK293 cells stably expressing hTRPM8; calcium influx, Fluo-4, Flexstation 3; sigmoidal dose-response fit. In short, it runs like this:
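HEK293 cells stably expressing hTRPM8 were loaded with Fluo-4 AM plus probenecid and kept in HEPES buffer, pH 7.4. Calcium influx to serially diluted compounds was recorded for 120 s. Maximal activation was referenced to solvent control and 31.6 μM menthol, with EC values from sigmoidal dose-response fits.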
For `Cc1ccc(-c2cnc(C3CCCCN3C(=O)C(C)[S+](C)[O-])[nH]2)cc1` (stereo not drawn) [Compound 101, 2-(methylsulfinyl)-1-(2-(5-(p-tolyl)-1H-imidazol-2-yl)piperidin-1-yl)propan-1-one], the EC50 is 50 to 300 nM.
In the case of `CS(=O)(=O)CC(=O)N1CCCCC1c1nc(-c2ccccc2)c[nH]1` (stereo not drawn) [Compound 102, 2-(methylsulfonyl)-1-(2-(4-phenyl-1H-imidazol-2-yl)piperidin-1-yl)ethan-1-one] it was 1000 to 35000 nM; in that of `CC(C(=O)N1CCCCC1c1nc(-c2ccccc2)c[nH]1)S(C)(=O)=O` (stereo not drawn) [Compound 103, 2-(methylsulfonyl)-1-(2-(4-phenyl-1H-imidazol-2-yl)piperidin-1-yl)propan-1-one], 1000 to 35000 nM.
As for `CSC(C)C(=O)N1CCCCC1c1nnn(-c2ccc(C)cc2)n1` (stereo not drawn) [Compound 104, 2-(methylthio)-1-(2-(2-(p-toly)-2H-tetrazol-5-yl)piperidin-1-yl)propan-1-one], the EC50 is less than 50 nM.
With `CSC(C)C(=O)N1CCCCC1c1nc(-c2ccccc2)no1` (stereo not drawn) [Compound 105, 2-(methylthio)-1-(2-(3-phenyl-1,2,4-oxadiazol-5-yl)piperidin-1-yl)propan-1-one] the figure was 300 to 1000 nM.
For `CSC(C)C(=O)N1CCCCC1c1nc(-c2cnn(C(F)(F)F)c2)c[nH]1` (stereo not drawn) [Compound 106, 2-(methylthio)-1-(2-(4-(1-(trifluoromethyl)-1H-pyrazol-4-yl)-1H-imidazol-2-yl)piperidin-1-yl)propan-1-one], the EC50 is 50 to 300 nM.
`CSC(C)C(=O)N1CCCCC1c1nc(-c2ccc(CN3CCOCC3)cc2)c[nH]1` (stereo not drawn) [Compound 107, 2-(methylthio)-1-(2-(4-(4-(morpholinomethyl)phenyl)-1H-imidazol-2-yl)piperidin-1-yl)propan-1-one]: the concentration giving a half-maximal response (EC50) lay within 1000 to 35000 nM.
As to `CSC(C)C(=O)N1CCCCC1c1nc(-c2ccc(C(F)(F)F)o2)c[nH]1` (stereo not drawn) [Compound 108, 2-(methylthio)-1-(2-(4-(5-(trifluoromethyl)furan-2-yl)-1H-imidazol-2-yl)piperidin-1-yl)propan-1-one], the EC50 is less than 50 nM.
With `CSC(C)C(=O)N1CCCCC1c1nc(-c2ccc(C(F)(F)F)s2)c[nH]1` (stereo not drawn) [Compound 109, 2-(methylthio)-1-(2-(4-(5-(trifluoromethyl)thiophen-2-yl)-1H-imidazol-2-yl)piperidin-1-yl)propan-1-one] the figure was less than 50 nM; with `CSC(C)C(=O)N1CCCCC1c1nc(-c2csc(C)c2)c[nH]1` (stereo not drawn) [Compound 110, 2-(methylthio)-1-(2-(4-(5-methylthiophen-3-yl)-1H-imidazol-2-yl)piperidin-1-yl)propan-1-one], less than 50 nM.
In the case of `CSC(C)C(=O)N1CCCCC1c1nc(-c2cccc(C)c2)c[nH]1` (stereo not drawn) [Compound 111, 2-(methylthio)-1-(2-(4-(m-tolyl)-1H-imidazol-2-yl)piperidin-1-yl)propan-1-one] it was 50 to 300 nM; in that of `CSC(C)C(=O)N1CCCCC1c1nc(-c2ccccc2C)c[nH]1` (stereo not drawn) [Compound 112, 2-(methylthio)-1-(2-(4-(o-tolyl)-1H-imidazol-2-yl)piperidin-1-yl)propan-1-one], 50 to 300 nM.
In the case of `CSC(C)C(=O)N1CCCCC1c1nc(-c2cccnc2)c[nH]1` (stereo not drawn) [Compound 113, 2-(methylthio)-1-(2-(4-(pyridin-3-yl)-1H-imidazol-2-yl)piperidin-1-yl)propan-1-one] it was 300 to 1000 nM; in that of `CSC(C)C(=O)N1CCCCC1c1nc(-c2ccncc2)c[nH]1` (stereo not drawn) [Compound 114, 2-(methylthio)-1-(2-(4-(pyridin-4-yl)-1H-imidazol-2-yl)piperidin-1-yl)propan-1-one], 300 to 1000 nM.
Consider `CSC(C)C(=O)N1CCCCC1c1nc(-c2cncnc2)c[nH]1` (stereo not drawn) [Compound 115, 2-(methylthio)-1-(2-(4-(pyrimidin-5-yl)-1H-imidazol-2-yl)piperidin-1-yl)propan-1-one], for which the EC50 lay within 1000 to 35000 nM.
Consider `CSC(C)C(=O)N1CCCCC1c1nc(-c2ccc3nccnc3c2)c[nH]1` (stereo not drawn) [Compound 116, 2-(methylthio)-1-(2-(4-(quinoxalin-6-yl)-1H-imidazol-2-yl)piperidin-1-yl)propan-1-one], for which the EC50 lay in the range of 300 to 1000 nM.
With `CSC(C)C(=O)N1CCCCC1c1nc(-c2ccsc2)c[nH]1` (stereo not drawn) [Compound 117, 2-(methylthio)-1-(2-(4-(thiophen-3-yl)-1H-imidazol-2-yl)piperidin-1-yl)propan-1-one] the figure was 50 to 300 nM; with `CSCC(=O)N1CCCCC1c1nc(-c2ccccc2)c[nH]1` (stereo not drawn) [Compound 118, 2-(methylthio)-1-(2-(4-phenyl-1H-imidazol-2-yl)piperidin-1-yl)ethan-1-one], 300 to 1000 nM.
With `CSC(C)C(=O)N1CCCCC1c1ncc(-c2ccccc2C(F)(F)F)[nH]1` (stereo not drawn) [Compound 119, 2-(methylthio)-1-(2-(5-(2-(trifluoromethyl)phenyl)-1H-imidazol-2-yl)piperidin-1-yl)propan-1-one] the figure was 300 to 1000 nM.
With `CSC(C)C(=O)N1CCCCC1c1ncc(-c2ccc(F)c(F)c2F)[nH]1` (stereo not drawn) [Compound 120, 2-(methylthio)-1-(2-(5-(2,3,4-trifluorophenyl)-1H-imidazol-2-yl)piperidin-1-yl)propan-1-one] the figure was less than 50 nM; with `CSC(C)C(=O)N1CCCCC1c1ncc(-c2cc(F)c(F)cc2F)[nH]1` (stereo not drawn) [Compound 121, 2-(methylthio)-1-(2-(5-(2,4,5-trifluorophenyl)-1H-imidazol-2-yl)piperidin-1-yl)propan-1-one], less than 50 nM; with `CSC(C)C(=O)N1CCCCC1c1ncc(-c2cccc(C(F)(F)F)c2)[nH]1` (stereo not drawn) [Compound 122, 2-(methylthio)-1-(2-(5-(3-(trifluoromethyl)phenyl)-1H-imidazol-2-yl)piperidin-1-yl)propan-1-one], 50 to 300 nM.
Consider `CSC(C)C(=O)N1CCCCC1c1ncc(-c2ccc(OC(F)(F)F)cc2)[nH]1` (stereo not drawn) [Compound 123, 2-(methylthio)-1-(2-(5-(4-(trifluoromethoxy)phenyl)-1H-imidazol-2-yl)piperidin-1-yl)propan-1-one], for which the EC50 is less than 50 nM.
In the case of `CCCc1ccc(-c2cnc(C3CCCCN3C(=O)C(C)SC)[nH]2)cc1` (stereo not drawn) [Compound 125, 2-(methylthio)-1-(2-(5-(4-propylphenyl)-1H-imidazol-2-yl)piperidin-1-yl)propan-1-one] it was less than 50 nM; in that of `C=Cc1ccc(-c2cnc(C3CCCCN3C(=O)C(C)SC)[nH]2)cc1` (stereo not drawn) [Compound 126, 2-(methylthio)-1-(2-(5-(4-vinylphenyl)-1H-imidazol-2-yl)piperidin-1-yl)propan-1-one], less than 50 nM.
With `CSC(C)C(=O)N1CCCCC1c1nnc(-c2ccc(C)cc2)o1` (stereo not drawn) [Compound 128, 2-(methylthio)-1-(2-(5-(p-tolyl)-1,3,4-oxadiazol-2-yl)piperidin-1-yl)propan-1-one] the figure was 300 to 1000 nM.
Take `CSC(C)C(=O)N1CCCCCC1c1ncc(-c2ccc(C)cc2)[nH]1` (stereo not drawn) [Compound 129, 2-(methylthio)-1-(2-(5-(p-tolyl)-1H-imidazol-2-yl)azepan-1-yl)propan-1-one]: the EC50 was less than 50 nM.
Turning to `CSC(C)C(=O)N1CCCCC1c1nnc(-c2ccc(C)cc2)[nH]1` (stereo not drawn) [Compound 131, 2-(methylthio)-1-(2-(5-(p-tolyl)-4H-1,2,4-triazol-3-yl)piperidin-1-yl)propan-1-one], the EC50 was less than 50 nM.
With `CSC(C)C(=O)N1CCCCC1c1cc(-c2ccc(C)cc2)on1` (stereo not drawn) [Compound 132, 2-(methylthio)-1-(2-(5-(p-toly)isoxazol-3-yl)piperidin-1-yl)propan-1-one], the EC50 was in the range of 50 to 300 nM.
Turning to `CSC(C)C(=O)N1CCCCC1c1ncc(-c2ccc(C)cc2)o1` (stereo not drawn) [Compound 133, 2-(methylthio)-1-(2-(5-(p-tolyl)oxazol-2-yl)piperidin-1-yl)propan-1-one], the EC50 was less than 50 nM.
In the case of `CSC(C)C(=O)N1CCCCC1c1ncc(-c2ccc(C)cc2)s1` (stereo not drawn) [Compound 134, 2-(methylthio)-1-(2-(5-(p-tolyl)thiazol-2-yl)piperidin-1-yl)propan-1-one] it was less than 50 nM.
Take `CSC(C)C(=O)N1CCC[C@@H]1c1ncc(-c2ccccc2)[nH]1` (stereo partly drawn) [Compound 136, 2-(methylthio)-1-((R)-2-(5-phenyl-1H-imidazol-2-yl)pyrrolidin-1-yl)propan-1-one]: the EC50 was in the range of 1000 to 35000 nM.
In the case of `CSC(C)C(=O)N1CCCCC1c1nnc(-c2ccccc2)[nH]1` (stereo not drawn) [Compound 137, 2-(methylthio)-1-(2-(5-phenyl-4H-1,2,4-triazol-3-yl)piperidin-1-yl)propan-1-one] it was 50 to 300 nM; in that of `CSC(C)C(=O)N1CCCCC1c1ncc(-c2ccccc2)o1` (stereo not drawn) [Compound 138, 2-(methylthio)-1-(2-(5-phenyloxazol-2-yl)piperidin-1-yl)propan-1-one], 300 to 1000 nM.
With `CSC(C)C(=O)N1CSCC1c1ncc(-c2ccc(C)cc2)[nH]1` (stereo not drawn) [Compound 139, 2-(methylthio)-1-(4-(5-(p-tolyl)-1H-imidazol-2-yl)thiazolidin-3-yl)propan-1-one] the figure was 50 to 300 nM; with `C=C(C)C(C)(C)C(=O)N1CCCCC1c1ncc(-c2ccc(C)cc2)[nH]1` (stereo not drawn) [Compound 140, 2,2,3-trimethyl-1-(2-(5-(p-tolyl)-1H-imidazol-2-yl)piperidin-1-yl)but-3-en-1-one], less than 50 nM.
On to `Cc1ccc(-c2cnc(C3CCCCN3C(=O)C(C)(C)C(C)C)[nH]2)cc1` (stereo not drawn) [Compound 141, 2,2,3-trimethyl-1-(2-(5-(p-tolyl)-1H-imidazol-2-yl)piperidin-1-yl)butan-1-one], for which the concentration giving a half-maximal response (EC50) is less than 50 nM.
For the compound `C=CC(C)(C)C(=O)N1CCCCC1c1ncc(-c2ccc(C)cc2)[nH]1` (stereo not drawn) [Compound 142, 2,2-dimethyl-1-(2-(5-(p-tolyl)-1H-imidazol-2-yl)piperidin-1-yl)but-3-en-1-one], the EC50 is less than 50 nM.
Regarding `CCC(C)(C)C(=O)N1CCCCC1c1ncc(-c2ccc(C)cc2)[nH]1` (stereo not drawn) [Compound 143, 2,2-dimethyl-1-(2-(5-(p-tolyl)-1H-imidazol-2-yl)piperidin-1-yl)butan-1-one], the EC50 was less than 50 nM.
